According to patent publication US8598078B2, “Condensed anthran I lami de derivatives as insecticides” (Syngenta Crop Protection, LLC, priority 2007, dated 2013):
Like-named read-outs stand apart in the source and are kept apart here.

Experiments:
Type in all cases: in vivo
[1] = test system: Myzus persicae (green peach aphid); test: Activity against Myzus persicae (mixed population, systemic/feeding activity, curative), pea seedling roots in test solution; conditions: 144 h, read-out: activity (mortality and special effects on the plant)
From the text: (§1) Activity Against Myzus persicae (Green Peach Aphid)
(Mixed Population, Systemic/Feeding Activity, Curative)
Roots of pea seedlings, infested with an aphid population of mixed ages, were placed directly in the test solutions. 6 days after introduction, samples were checked for mortality and special effects on the plant.

[2] = test system: Plutella xylostella (diamond back moth); test: Plutella xylostella (larvicide, feeding/residual contact activity, preventive), artificial diet MTP; conditions: 120 h, read-out: activity (larval mortality, antifeedant, growth regulation)
Description: Plutella xylostella (Diamond Back Moth)
(§2) (Larvicide, Feeding/Residual Contact Activity, Preventive)
24-well microtiter plate (MTP) with artificial diet was treated with test solutions by pipetting. After drying, the MTP's were infested with larvae (L2) (10-15 per well). After an incubation period of 5 days, samples were checked for larval mortality, antifeedant and growth regulation.

[3] = test system: Myzus persicae (green peach aphid); test: Activity against Myzus persicae (mixed population, feeding/residual contact activity, preventive), sunflower leaf discs; conditions: foliar, 144 h, read-out: activity (mortality and special effects)
Description: as §1
(§3) (Mixed Population, Feeding/Residual Contact Activity, Preventive)
(§4) Sunflower leaf discs were placed on agar in a 24-well microtiter plate and sprayed with test solutions. After drying, the leaf discs were infested with an aphid population of mixed ages. After an incubation period of 6 days, samples were checked for mortality and special effects (e.g. phytotoxicity).

[4] = test system: Thrips tabaci (onion thrips); test: Activity against Thrips tabaci (mixed population, feeding/residual contact activity, preventive), sunflower leaf discs; conditions: foliar, 144 h, read-out: activity (mortality and special effects)
Description: Activity Against Thrips tabaci (Onion Thrips)
as §3
as §4, with “a thrips” for “an aphid”

[5] = test system: Heliothis virescens (tobacco budworm); test: Activity against Heliothis virescens (ovo-larvicide, feeding/contact activity, curative), eggs on artificial diet; conditions: read-out: activity (egg mortality, larval mortality, growth regulation)
Description: Activity Against Heliothis virescens (Tobacco Budworm)
(Ovo-Larvicide, Feeding/Contact Activity, Curative)
Eggs (0-24 h old) were placed in 24-well microtiter plate on artificial diet and treated with test solutions by pipetting. After an incubation period of 4 days, samples were checked for egg mortality, larval mortality, and growth regulation.

[6] = test system: Spodoptera littoralis (Egyptian cotton leafworm); test: Activity against Spodoptera littoralis (larvicide, feeding/residual contact activity, preventive), cotton leaf discs; conditions: foliar, 72 h, read-out: activity (mortality, repellent effect, feeding behaviour, growth regulation)
From the text: Activity Against Spodoptera littoralis (Egyptian Cotton Leafworm)
as §2
Cotton leaf discs were placed on agar in a 24-well microtiter plate and sprayed with test solutions. After drying, the leaf discs were infested with 5 L1 larvae. The samples were checked for mortality, repellent effect, feeding behaviour, and growth regulation 3 days after treatment.

[7] = test system: Diabrotica balteata (corn root worm); test: Diabrotica balteata (larvicide, feeding/residual contact activity, preventive), artificial diet MTP; conditions: 120 h, read-out: activity (larval mortality, antifeedant, growth regulation)
Description: Diabrotica balteata (Corn Root Worm)
as §2
24-well microtiter plate (MTP) with artificial diet was treated with test solutions by pipetting. After drying, the MTP's were infested with larvae (L2) (6-10 per well). After an incubation period of 5 days, samples were checked for larval mortality, antifeedant and growth regulation.

[8] = test system: Nilaparvata lugens (brown rice planthopper); test: Activity against Nilaparvata lugens (larvicide, feeding/contact), rice seedlings; conditions: read-out: activity (mortality, growth regulation, effects on the F1 generation)
Description: Activity Against Nilaparvata lugens (Brown Rice Planthopper)
(Larvicide, Feeding/Contact)
Rice seedlings were treated with the diluted test solutions in a spray chamber. After drying, they were infested with 20 N3 nymphs (2 replicates). 6-12 days after the treatment samples were checked for mortality, growth regulation, and effects on the F, generation.

[9] = 400 ppm, L2 larvae on treated artificial diet, 5 days incubation
[10] = 400 ppm, mixed-age aphids on sprayed sunflower leaf discs, 6 days incubation
[11] = 400 ppm, eggs 0-24 h old on artificial diet, 4 days incubation
[12] = 400 ppm, L1 larvae on sprayed cotton leaf discs, 3 days after treatment
[13] = 400 ppm, systemic, roots of infested pea seedlings in test solution, 6 days

Measured: mortality at 400 ppm

COCn1cc2cc(C)c(NC(=O)c3cc(OC)nn3-c3ncccc3Cl)c(C(=O)NC(C)C)c2n1 [P.3]
> 80%: [1] | [2] | [3] | [4] | [5] | [6]

COCn1cc2cc(Cl)c(NC(=O)c3cc(C(F)(F)F)nn3-c3ncccc3Cl)c(C(=O)NC(C)C)c2n1 [P.6]
> 80%: [1] | [2] | [3] | [4] | [5] | [6] | [7]

C#CCn1cc2cc(C)c(NC(=O)c3cc(OC)nn3-c3ncccc3Cl)c(C(=O)NC(C)C)c2n1 [P.7]
> 80%: [1] | [2] | [3] | [4] | [5] | [6] | [7]

C=CCn1cc2cc(C)c(NC(=O)c3cc(OC)nn3-c3ncccc3Cl)c(C(=O)NC(C)C)c2n1 [P.8]
> 80%: [1] | [2] | [3] | [4] | [5] | [6] | [7]

COc1cc(C(=O)Nc2c(C)cc3cn(CC(F)(F)F)nc3c2C(=O)NC(C)C)n(-c2ncccc2Cl)n1 [P.10]
> 80%: [2] | [3] | [4] | [5] | [6]

COC(=O)N(C)Cn1cc2cc(C)c(NC(=O)c3cc(OC)nn3-c3ncccc3Cl)c(C(=O)NC(C)C)c2n1 [P.11]
> 80%: [1] | [2] | [3] | [4] | [5] | [6] | [7]

COCCOCn1cc2cc(C)c(NC(=O)c3cc(OC)nn3-c3ncccc3Cl)c(C(=O)NC(C)C)c2n1 [P.12, 6-{[2-(3-chloro-pyridin-2-yl)-5-methoxy-2H-pyrazole-3-carbonyl]-amino}-2-(2-methoxy-ethoxymethyl)-5-methyl-2H-indazole-7-carboxylic acid isopropylamide]
> 80%: [1] | [2] | [3] | [4] | [8] | [5] | [6]

COCCOCn1ncc2cc(C)c(NC(=O)c3cc(OC)nn3-c3ncccc3Cl)c(C(=O)NC(C)C)c21 [P.13, 6-{[2-(3-chloro-pyridin-2-yl)-5-methoxy-2H-pyrazole-3-carbonyl]-amino}-1-(2-methoxy-ethoxymethyl)-5-methyl-1H-indazole-7-carboxylic acid isopropylamide]
> 80%: [1] | [2] | [3] | [4] | [5] | [6]

COc1cc(C(=O)Nc2c(C)cc3cnn(CC#N)c3c2C(=O)NC(C)C)n(-c2ncccc2Cl)n1 [P.14]
> 80%: [1] | [2] | [3] | [4] | [5] | [6]

COC(=O)N(C)Cn1ncc2cc(C)c(NC(=O)c3cc(OC)nn3-c3ncccc3Cl)c(C(=O)NC(C)C)c21 [P.15]
> 80%: [1] | [2] | [3] | [4] | [5] | [6] | [7]

CCS(=O)(=O)N(C)Cn1cc2cc(C)c(NC(=O)c3cc(OC)nn3-c3ncccc3Cl)c(C(=O)NC(C)C)c2n1 [P.17]
> 80%: [1] | [2] | [3] | [5] | [6]

CCS(=O)(=O)N(C)Cn1ncc2cc(C)c(NC(=O)c3cc(OC)nn3-c3ncccc3Cl)c(C(=O)NC(C)C)c21 [P.18]
> 80%: [1] | [2] | [3] | [5] | [6]

CCCCCCOCCOC(=O)n1cc2cc(C)c(NC(=O)c3cc(OC)nn3-c3ncccc3Cl)c(C(=O)NC(C)C)c2n1 [P.24]
> 80%: [1] | [2] | [3] | [5] | [6] | [7]

CCCCCCCC/C=C\CCCCCCCC(=O)n1cc2cc(C)c(NC(=O)c3cc(OC)nn3-c3ncccc3Cl)c(C(=O)NC(C)C)c2n1 [P.25]
> 80%: [2]; [9] | [3]; [10] | [4]; 400 ppm, mixed-age thrips on sprayed sunflower leaf discs, 6 days incubation | [5]; [11] | [6]; [12]

COc1cc(C(=O)Nc2c(C)cc3cn(C(=O)CC(C)(C)C)nc3c2C(=O)NC(C)C)n(-c2ncccc2Cl)n1 [P.27]
> 80%: [1] | [2] | [3] | [4] | [5] | [6] | [7]

CCCCCCCCCCOCCOC(=O)n1cc2cc(C)c(NC(=O)c3cc(OC)nn3-c3ncccc3Cl)c(C(=O)NC(C)(C)C)c2n1 [P.28]
> 80%: [1]; [13] | [2]; [9] | [3]; [10] | [5]; [11] | [6]; [12]

CCCCCCCCCCCCCCCCCCOCCOC(=O)n1cc2cc(C)c(NC(=O)c3cc(OC)nn3-c3ncccc3Cl)c(C(=O)NC(C)C)c2n1 [P.30]
> 80%: [1]; [13] | [2]; [9] | [3]; [10] | [5]; [11] | [6]; [12] | [7]; [9]

COc1cc(C(=O)Nc2c(C)cc3cn(C(=O)C4(C)CCCCC4)nc3c2C(=O)NC(C)C)n(-c2ncccc2Cl)n1 [P.32]
> 80%: [1] | [2] | [3] | [4] | [5] | [6] | [7]

COc1cc(C(=O)Nc2c(C)cc3cn(Cc4ccccc4)nc3c2C(=O)NC(C)C)n(-c2ncccc2Cl)n1 [P.33]
> 80%: [2] | [3] | [4] | [5] | [6] | [7]

COc1ccc(Cn2cc3cc(C)c(NC(=O)c4cc(OC)nn4-c4ncccc4Cl)c(C(=O)NC(C)C)c3n2)cc1 [P.34, 6-{[2-(3-chloro-pyridin-2-yl)-5-methoxy-2H-pyrazole-3-carbonyl]-amino}-2-(4-methoxy-benzyl)-5-methyl-2H-indazole-7-carboxylic acid isopropyl amide]
> 80%: [1] | [2] | [3] | [4] | [5] | [6]

CCCCN(CCCC)C(=O)n1cc2cc(C)c(NC(=O)c3cc(OC)nn3-c3ncccc3Cl)c(C(=O)NC(C)C)c2n1 [P.35]
> 80%: [2] | [4] | [5]

COc1cc(C(=O)Nc2c(C)cc3cn(C(=O)N(C)c4ccccc4)nc3c2C(=O)NC(C)C)n(-c2ncccc2Cl)n1 [P.36]
> 80%: [1] | [2] | [4] | [5]
